Measured values as given in patent publication US20090029997A1, “Thiazole Derivatives and Use Thereof” (LABORATOIRES SERONO SA, priority 2006, published 2009).

How the values were obtained:
[1] = target: Human recombinant GST-PI3Kγ (Homo sapiens, UniProt P48736); experiment: High throughput PI3K lipid kinase assay (SPA, neomycin-coated beads); type: biochemical; conditions: 180 min at room temperature
Excerpt: a) High Throughput PI3K Lipid Kinase Assay (Binding Assay):
The efficacy of compounds of the invention in inhibiting the PI3K induced-lipid phosphorylation may be tested in the following binding assay.
The assay combines the scintillation proximity assay technology (SPA, Amersham) with the capacity of neomycin (a polycationic antibiotic) to bind phospholipids with high affinity and specificity. The Scintillation Proximity Assay is based on the properties of weakly emitting isotopes (such as ^3H, ^125I, ^33P). Coating SPA beads with neomycin allows the detection of phosphorylated lipid substrates after incubation with recombinant PI3K and radioactive ATP in the same well, by capturing the radioactive phospholipids to the SPA beads through their specific binding to neomycin.
To a 384 wells MTP containing 5 μl of the test compound of Formula (I) (solubilized in 6% DMSO; to yield a concentration of 100, 30, 10, 3, 1, 0.3, 0.1, 0.03, 0.01, 01 μM of the test compound), the following assay components are added. 1) 5 μl (58 ng) of Human recombinant GST-PI3Kγ (in Hepes 40 mM, pH 7.4, DTT 1 mM and ethyleneglycol 5%) 2) 10 μl of lipid micelles and 3) 10 μl of Kinase buffer ([^33P]γ-ATP 45 μM/60 nCi, MgCl2 30 mM, DTT 1 mM, β-Glycerophosphate 1 mM, Na3VO4 100 μM, Na Cholate 0.3%, in Hepes 40 mM, pH 7.4). After incubation at room temperature for 180 minutes, with gentle agitation, the reaction is stopped by addition of 60 μl of a solution containing 100 μg of neomycin-coated PVT SPA beads in PBS containing ATP 10 mM and EDTA 5 mM. The assay is further incubated at room temperature for 60 minutes with gentle agitation to allow binding of phospholipids to neomycin-SPA beads. After precipitation of the neomycin-coated PVT SPA beads for 5 minutes at 1500×g, radioactive PtdIns(3)P is quantified by scintillation counting in a Wallac MicroBeta™ plate counter.
The values indicated in Table I below refer to the IC50 (μM) with respect to PI3Kγ, i.e. the amount necessary to achieve 50% inhibition of said target. Said values show a considerable inhibitory potency of thiazole compounds with regard to PI3Kγ.

[2] = tested on: Akt/PKB phosphorylation in Raw 264-7 macrophages; experiment: Cell based ELISA of Akt/PKB phosphorylation after Complement 5a stimulation; conditions: Mus musculus, RAW264.7, 50 nM Complement 5a for 5 minutes, inhibitor pretreatment 20 minutes, read-out: Cell Assay (P-Akt, Elisa) IC50
Method: b) Cell Based ELISA to Monitor PI3K Inhibition:
The efficacy of compounds of the invention in inhibiting the PI3K induced Akt/PKB phosphorylation may be tested in the following cell based assay.
Measurement of Akt/PKB phosphorylation in macrophages after stimulation with Complement 5a: Raw 264: Raw 264-7 macrophages (cultured in DMEM-F12 medium containing 10% Fetal Calf serum and antibiotics) are plated at 20'000 cells/well in a 96 MTP 24 h before cell stimulation. Prior to the stimulation with 50 nM of Complement 5a during 5 minutes, Cells are serum starved for 2 h, and pretreated with inhibitors for 20 minutes. After stimulation cells are fixed in 4% formaldehyde for 20 minutes and washed 3 times in PBS containing 1% Triton X-100 (PBS/Triton). […] Next, phosphorylated Akt/PKB is detected by an overnight incubation at 4° C. with primary antibody (anti phospho Serine 473 Akt IHC, Cell Signaling) diluted 800-fold in PBS/Triton, containing 5% bovine serum albumin (BSA). After 3 washes in PBS/Triton, cells are incubated for 60 minutes with a peroxidase conjugated goat-anti-rabbit secondary antibody (1/400 dilution in PBS/Triton, containing 5% BSA), washed 3 times in PBS/Triton, and 2 times in PBS and further incubated in 100 μl of luminescent substrate reagent solution (Pierce) for 2 minutes, followed by the reading (1 s/well). […]

[3] = tested on: Class I PI3-kinases; conditions: Fruman et al., 1998; read-out: IC50 against each of the various Class I PI3-kinases; cited from earlier work

Chain of Human recombinant GST-PI3Kγ (P48736 whole entry): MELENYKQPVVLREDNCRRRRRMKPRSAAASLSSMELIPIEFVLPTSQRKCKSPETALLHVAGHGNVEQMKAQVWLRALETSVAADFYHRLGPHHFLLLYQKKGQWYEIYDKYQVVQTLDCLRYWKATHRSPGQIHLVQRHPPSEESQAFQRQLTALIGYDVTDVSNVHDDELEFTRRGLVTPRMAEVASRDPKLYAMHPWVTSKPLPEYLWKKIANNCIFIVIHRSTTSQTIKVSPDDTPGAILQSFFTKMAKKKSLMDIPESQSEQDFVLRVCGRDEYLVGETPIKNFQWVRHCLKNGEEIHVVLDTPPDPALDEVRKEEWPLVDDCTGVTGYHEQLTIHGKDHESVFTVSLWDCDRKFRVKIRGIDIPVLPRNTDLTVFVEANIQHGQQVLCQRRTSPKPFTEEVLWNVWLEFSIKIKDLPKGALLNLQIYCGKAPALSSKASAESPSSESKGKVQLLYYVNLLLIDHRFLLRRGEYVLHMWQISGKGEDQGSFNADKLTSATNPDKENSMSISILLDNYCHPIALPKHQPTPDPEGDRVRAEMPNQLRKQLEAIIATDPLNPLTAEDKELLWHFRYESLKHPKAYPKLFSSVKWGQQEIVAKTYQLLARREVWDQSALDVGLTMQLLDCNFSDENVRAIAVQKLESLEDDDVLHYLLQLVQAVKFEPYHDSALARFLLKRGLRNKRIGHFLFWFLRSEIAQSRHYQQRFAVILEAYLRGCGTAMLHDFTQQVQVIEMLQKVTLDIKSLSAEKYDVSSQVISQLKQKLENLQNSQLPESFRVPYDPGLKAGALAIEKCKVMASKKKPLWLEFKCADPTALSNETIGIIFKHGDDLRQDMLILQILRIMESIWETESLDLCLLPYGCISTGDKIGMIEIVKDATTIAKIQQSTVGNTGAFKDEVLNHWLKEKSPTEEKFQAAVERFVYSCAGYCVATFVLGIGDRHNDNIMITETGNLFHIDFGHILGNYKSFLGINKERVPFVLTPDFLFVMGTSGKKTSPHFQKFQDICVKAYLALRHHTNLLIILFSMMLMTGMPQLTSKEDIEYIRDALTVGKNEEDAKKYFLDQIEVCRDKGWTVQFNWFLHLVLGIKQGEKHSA

| Compound | IC50 [1] [nM] | IC50 [2] [nM] | IC50 [3] [nM] |
| --- | --- | --- | --- |
| CC(=O)Nc1nc(C)c(-c2cnn(C)c2)s1 [Example 1, N-[4-methyl-5-(1-methyl-1H-pyrazol-4-yl)-1,3-thiazol-2-yl]acetamide] | 1340 |  |  |
| CC(=O)Nc1nc(C)c(-c2cn[nH]c2)s1 [Example 3, N-[4-methyl-5-(1H-pyrazol-4-yl)-1,3-thiazol-2-yl]acetamide] | 413 |  |  |
| CC(=O)Nc1nc(C)c(-c2cnn(C(=O)NCCN(C)C)c2)s1 [Example 5, 4-[2-(acetylamino)-4-methyl-1,3-thiazol-5-yl]-N-[2-(dimethylamino)ethyl]-1H-pyrazole-1-carboxamide] | 1230 |  |  |
| CC(=O)Nc1nc(C)c(-c2cnn(S(=O)(=O)c3ccc(C(=O)O)cc3)c2)s1 [Example 14, 4-({4-[2-(acetylamino)-4-methyl-1,3-thiazol-5-yl]-1H-pyrazol-1-yl}sulfonyl)benzoic acid] | 708 |  |  |
| wortmannin |  |  | 1 to 10 |

More lines, in order of falling IC50 [1], values ahead:

| IC50 [1] [nM] | IC50 [2] [nM] | Compound | IC50 [3] [nM] |
| --- | --- | --- | --- |
| 282 |  | COc1ccc(S(=O)(=O)n2cc(-c3sc(NC(C)=O)nc3C)cn2)cn1 [Example 7, N-(5-{1-[(6-methoxypyridin-3-yl)sulfonyl]-1H-pyrazol-4-yl}-4-methyl-1,3-thiazol-2-yl)acetamide] |  |
| 111 | 850 | CC(=O)Nc1nc(C)c(-c2cnn(S(=O)(=O)c3cn(C)cn3)c2)s1 [Example 8, N-(4-methyl-5-{1-[(1-methyl-1H-imidazol-4-yl)sulfonyl]-1H-pyrazol-4-yl}-1,3-thiazol-2-yl)acetamide] |  |
